Drawing on ChEMBL document CHEMBL4699602, “Stapled and Xenopus Glucagon-Like Peptide 1 (GLP-1)-Based Dual GLP-1/Gastrin Receptor Agonists with Improved Metabolic Benefits in Rodent Models of Obesity and Diabetes” (J Med Chem, 2020), this text covers EC50 and Activity for nine molecules.

pEC50: −log10 of the molar value. The source made the active and inactive calls. The calls are words filed in the database; no cut-off is given here. *1 amine or outer side, *2 acyl side, *3 side chain or, on linkers, in order; H or OH if unused. Where a SMILES comes first, the peptide text is derived from it. Bridges are numbered along the chain shown (N, C = ends). [ ]: non-standard residue; d: D form. X3 = O=C(O)CCCCCCCCCCCCCCCCC(=O)NC(CCC(=O)NCCOCCOCC(=O)NCCCCCCNC(=O)C(CCCCNC(=O)CCN1C(=O)CC([*:1])C1=O)NC(=O)CCN1C(=O)CC([*:2])C1=O)C(=O)O; AEEA = NCCOCCOCC(=O)O; Aib = CC(C)(N)C(=O)O Some results are limits rather than exact numbers.

The target of experiment [1] is Glucagon-like peptide 1 receptor (Homo sapiens, UniProt P43220). Kind of experiment: Agonist activity at human GLP-1R expressed in HEK293 cells assessed as stimulation of cAMP accumulation incubated for 20 mins. The format is functional, cell-based. For orientation: cAMP levels reflect the balance of adenylyl cyclase and phosphodiesterase activity.
Sequence of Glucagon-like peptide 1 receptor (P43220 whole entry): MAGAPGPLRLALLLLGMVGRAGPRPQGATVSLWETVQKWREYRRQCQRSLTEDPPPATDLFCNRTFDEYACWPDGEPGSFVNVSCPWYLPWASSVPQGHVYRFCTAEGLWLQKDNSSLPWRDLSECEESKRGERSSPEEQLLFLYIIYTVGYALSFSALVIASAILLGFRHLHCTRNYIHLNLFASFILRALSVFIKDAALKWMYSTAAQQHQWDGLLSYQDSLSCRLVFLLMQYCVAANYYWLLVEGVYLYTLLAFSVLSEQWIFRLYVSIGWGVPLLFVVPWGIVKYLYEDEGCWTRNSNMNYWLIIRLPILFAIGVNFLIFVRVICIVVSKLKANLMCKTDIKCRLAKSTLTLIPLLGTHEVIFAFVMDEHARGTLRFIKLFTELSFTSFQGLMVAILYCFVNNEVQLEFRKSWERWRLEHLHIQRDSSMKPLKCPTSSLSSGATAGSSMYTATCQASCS
For experiment [2], the target named is T1, Gastrin/cholecystokinin type B receptor (Homo sapiens, UniProt P32239).
T1 sequence (P32239 whole entry): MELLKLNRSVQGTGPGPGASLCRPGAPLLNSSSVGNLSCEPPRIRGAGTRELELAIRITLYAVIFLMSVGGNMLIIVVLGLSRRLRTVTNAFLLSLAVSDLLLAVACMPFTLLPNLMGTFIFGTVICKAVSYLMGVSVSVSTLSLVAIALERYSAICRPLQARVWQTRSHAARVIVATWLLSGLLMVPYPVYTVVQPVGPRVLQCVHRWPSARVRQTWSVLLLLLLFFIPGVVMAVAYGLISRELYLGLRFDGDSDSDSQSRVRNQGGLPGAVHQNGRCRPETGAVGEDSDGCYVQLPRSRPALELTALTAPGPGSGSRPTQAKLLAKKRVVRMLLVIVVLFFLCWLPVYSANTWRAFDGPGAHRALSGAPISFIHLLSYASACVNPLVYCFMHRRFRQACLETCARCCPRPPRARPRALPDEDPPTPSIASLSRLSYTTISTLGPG
Kind of experiment: Agonist activity at human CCK-2R expressed in HEK293 cells assessed as stimulation of ERK phosphorylation incubated for 5 mins. It counts as cell-based.

The target in experiment [3] is T2, Cholecystokinin receptor type A (Homo sapiens, UniProt P32238).
T2 sequence (P32238 whole entry): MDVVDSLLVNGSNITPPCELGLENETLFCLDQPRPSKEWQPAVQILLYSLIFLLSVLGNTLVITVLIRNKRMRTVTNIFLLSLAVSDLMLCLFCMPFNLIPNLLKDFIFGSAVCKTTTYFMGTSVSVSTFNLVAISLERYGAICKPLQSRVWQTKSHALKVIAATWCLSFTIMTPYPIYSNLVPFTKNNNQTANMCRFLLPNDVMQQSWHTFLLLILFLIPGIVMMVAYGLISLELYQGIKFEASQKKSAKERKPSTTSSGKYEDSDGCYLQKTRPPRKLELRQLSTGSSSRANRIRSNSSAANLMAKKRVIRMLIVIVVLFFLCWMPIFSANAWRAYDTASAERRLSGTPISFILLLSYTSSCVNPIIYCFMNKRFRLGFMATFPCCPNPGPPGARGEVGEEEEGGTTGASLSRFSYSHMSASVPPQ
Description: Agonist activity at human CCK-1R expressed in HEK293 cells assessed as stimulation of ERK phosphorylation incubated for 5 mins. It counts as cell-based.

In a further experiment the test system is Mus musculus. Kind of experiment: Hypoglycemic activity in ICR mouse assessed as decrease in blood glucose concentration at 25 nmol/kg, ip dosed 15 mins before test and measured up to 120 mins by OGTT method. The format is functional, organism-based.

The term pEC50 denotes −log10 of the EC50, conventionally taken in molar units. On to `CC[C@H](C)[C@H](NC(=O)[C@H](CC(C)C)NC(=O)[C@H](Cc1c[nH]c2ccccc12)NC(=O)[C@H](CCC(=O)O)NC(=O)[C@@H](NC(=O)[C@H](Cc1ccccc1)NC(=O)[C@@H]1CSC2CC(=O)N(CCC(=O)NC(C(=O)NCCCCCCNC(=O)COCCOCCNC(=O)CCC(NC(=O)CCCCCCCCCCCCCCCCC(=O)O)C(=O)O)CCCCNC(=O)CCN3C(=O)CC(SC[C@H](NC(=O)[C@H](Cc4ccc(O)cc4)NC(=O)[C@H](CCC(=O)O)NC(=O)[C@@H](NC(=O)[C@@H](NC(=O)[C@H](CC(=O)O)NC(=O)[C@H](CC(N)=O)NC(=O)[C@@H](NC(=O)[C@H](Cc4ccc(O)cc4)NC(=O)[C@@H](NC(=O)CNC(=O)[C@H](CCC(=O)O)NC(=O)C(C)(C)NC(=O)[C@@H](N)Cc4c[nH]cn4)[C@@H](C)O)[C@@H](C)O)C(C)C)[C@@H](C)O)C(=O)N[C@@H](CCC(=O)O)C(=O)N[C@@H](CCC(=O)O)C(=O)N[C@@H](CCC(=O)O)C(=O)N[C@@H](C)C(=O)N[C@@H](C)C(=O)N[C@@H](CCCCN)C(=O)N1)C3=O)C2=O)[C@@H](C)CC)C(=O)N[C@@H](CCCCN)C(=O)NCC(=O)N[C@@H](CCCCN)C(=O)NCCOCCOCC(=O)NCCOCCOCC(=O)N[C@@H](Cc1ccc(O)cc1)C(=O)NCC(=O)N[C@@H](Cc1c[nH]c2ccccc12)C(=O)N[C@@H](CC(C)C)C(=O)N[C@@H](CC(=O)O)C(=O)N[C@@H](Cc1ccccc1)C(N)=O` (some centres undefined) (H-H[Aib]EGTYTNDVTEYCEEEAAKCFIEWLIKGK[AEEA][AEEA]YGWLDF-NH2; linker 14-21 via X3), for which the pEC50 in experiment [1] was 10.26; in experiment [2] it was 7.82; in experiment [3], less than 6.00.
In the case of `CC[C@H](C)[C@H](NC(=O)[C@H](CC(C)C)NC(=O)[C@H](Cc1c[nH]c2ccccc12)NC(=O)[C@H](CCC(=O)O)NC(=O)[C@@H](NC(=O)[C@H](Cc1ccccc1)NC(=O)[C@H](CS)NC(=O)[C@H](CCCCN)NC(=O)[C@H](C)NC(=O)[C@H](C)NC(=O)[C@H](CCC(=O)O)NC(=O)[C@H](CCC(=O)O)NC(=O)[C@H](CCC(=O)O)NC(=O)[C@H](CS)NC(=O)[C@H](Cc1ccc(O)cc1)NC(=O)[C@H](CCC(=O)O)NC(=O)[C@@H](NC(=O)[C@@H](NC(=O)[C@H](CC(=O)O)NC(=O)[C@H](CC(N)=O)NC(=O)[C@@H](NC(=O)[C@H](Cc1ccc(O)cc1)NC(=O)[C@@H](NC(=O)CNC(=O)[C@H](CCC(=O)O)NC(=O)C(C)(C)NC(=O)[C@@H](N)Cc1c[nH]cn1)[C@@H](C)O)[C@@H](C)O)C(C)C)[C@@H](C)O)[C@@H](C)CC)C(=O)N[C@@H](CCCCN)C(=O)NCC(=O)N[C@@H](CCCCN)C(=O)N1CCC[C@H]1C(=O)N[C@@H](CO)C(=O)N[C@@H](CO)C(=O)NCC(=O)N[C@@H](C)C(=O)N1CCC[C@H]1C(=O)N1CCC[C@H]1C(=O)N1CCC[C@H]1C(=O)N[C@@H](CO)C(N)=O` (HELM PEPTIDE1{H.[Aib].E.G.T.Y.T.N.D.V.T.E.Y.C.E.E.E.A.A.K.C.F.I.E.W.L.I.K.G.K.P.S.S.G.A.P.P.P.S.[am]}$$$$V2.0), the result in the experiment with Mus musculus was Active. Also, in experiment [1], the pEC50 is 10.38.
The matching figures for `CC[C@H](C)[C@H](NC(=O)[C@H](CC(C)C)NC(=O)[C@H](Cc1c[nH]c2ccccc12)NC(=O)[C@H](CCC(=O)O)NC(=O)[C@@H](NC(=O)[C@H](Cc1ccccc1)NC(=O)[C@H](CS)NC(=O)[C@H](CCCCN)NC(=O)[C@H](C)NC(=O)[C@H](C)NC(=O)[C@H](CCC(=O)O)NC(=O)[C@H](CCC(=O)O)NC(=O)[C@H](CCC(=O)O)NC(=O)[C@H](CS)NC(=O)[C@H](Cc1ccc(O)cc1)NC(=O)[C@H](CCC(=O)O)NC(=O)[C@@H](NC(=O)[C@@H](NC(=O)[C@H](CC(=O)O)NC(=O)[C@H](CC(N)=O)NC(=O)[C@@H](NC(=O)[C@H](Cc1ccc(O)cc1)NC(=O)[C@@H](NC(=O)CNC(=O)[C@H](CCC(=O)O)NC(=O)C(C)(C)NC(=O)[C@@H](N)Cc1c[nH]cn1)[C@@H](C)O)[C@@H](C)O)C(C)C)[C@@H](C)O)[C@@H](C)CC)C(=O)N[C@@H](CCCCN)C(=O)NCC(=O)N[C@@H](CCCCN)C(N)=O` (HELM PEPTIDE1{H.[Aib].E.G.T.Y.T.N.D.V.T.E.Y.C.E.E.E.A.A.K.C.F.I.E.W.L.I.K.G.K.[am]}$$$$V2.0): “Active” and 10.18.
As for `CC[C@H](C)[C@H](NC(=O)[C@H](CC(C)C)NC(=O)[C@H](Cc1c[nH]c2ccccc12)NC(=O)[C@H](CCC(=O)O)NC(=O)[C@@H](NC(=O)[C@H](Cc1ccccc1)NC(=O)[C@H](CS)NC(=O)[C@H](CCCCN)NC(=O)[C@H](C)NC(=O)[C@H](C)NC(=O)[C@H](CCC(=O)O)NC(=O)[C@H](CCC(=O)O)NC(=O)[C@H](CCC(=O)O)NC(=O)[C@H](CC(C)C)NC(=O)[C@H](Cc1ccc(O)cc1)NC(=O)[C@H](CCC(=O)O)NC(=O)[C@@H](NC(=O)[C@@H](NC(=O)[C@H](CC(=O)O)NC(=O)[C@H](CC(N)=O)NC(=O)[C@@H](NC(=O)[C@H](Cc1ccc(O)cc1)NC(=O)[C@@H](NC(=O)CNC(=O)[C@H](CCC(=O)O)NC(=O)C(C)(C)NC(=O)[C@@H](N)Cc1c[nH]cn1)[C@@H](C)O)[C@@H](C)O)C(C)C)[C@@H](C)O)[C@@H](C)CC)C(=O)N[C@@H](CS)C(=O)NCC(=O)N[C@@H](CCCCN)C(=O)N1CCC[C@H]1C(=O)N[C@@H](CO)C(=O)N[C@@H](CO)C(=O)NCC(=O)N[C@@H](C)C(=O)N1CCC[C@H]1C(=O)N1CCC[C@H]1C(=O)N1CCC[C@H]1C(=O)N[C@@H](CO)C(N)=O` (HELM PEPTIDE1{H.[Aib].E.G.T.Y.T.N.D.V.T.E.Y.L.E.E.E.A.A.K.C.F.I.E.W.L.I.C.G.K.P.S.S.G.A.P.P.P.S.[am]}$$$$V2.0), in the experiment on Mus musculus, the outcome was Active. Further, the pEC50 in experiment [1] is 10.28.
Consider `CC[C@H](C)[C@H](NC(=O)[C@H](CC(C)C)NC(=O)[C@H](Cc1c[nH]c2ccccc12)NC(=O)[C@H](CCC(=O)O)NC(=O)[C@@H](NC(=O)[C@H](Cc1ccccc1)NC(=O)[C@H](CS)NC(=O)[C@H](CCCCN)NC(=O)[C@H](C)NC(=O)[C@H](C)NC(=O)[C@H](CCC(=O)O)NC(=O)[C@H](CCC(=O)O)NC(=O)[C@H](CCC(=O)O)NC(=O)[C@H](CC(C)C)NC(=O)[C@H](Cc1ccc(O)cc1)NC(=O)[C@H](CCC(=O)O)NC(=O)[C@@H](NC(=O)[C@@H](NC(=O)[C@H](CC(=O)O)NC(=O)[C@H](CC(N)=O)NC(=O)[C@@H](NC(=O)[C@H](Cc1ccc(O)cc1)NC(=O)[C@@H](NC(=O)CNC(=O)[C@H](CCC(=O)O)NC(=O)C(C)(C)NC(=O)[C@@H](N)Cc1c[nH]cn1)[C@@H](C)O)[C@@H](C)O)C(C)C)[C@@H](C)O)[C@@H](C)CC)C(=O)N[C@@H](CS)C(=O)NCC(=O)N[C@@H](CCCCN)C(N)=O` (HELM PEPTIDE1{H.[Aib].E.G.T.Y.T.N.D.V.T.E.Y.L.E.E.E.A.A.K.C.F.I.E.W.L.I.C.G.K.[am]}$$$$V2.0), for which the outcome with Mus musculus was Active. Also, in experiment [1], the pEC50 is 10.08.
The matching figures for H-HGEGTYTNDVTEYLEEEAAKEFIEWLIKGK-NH2: “Active” and 10.32.
Taken in the same sequence, the figures for “H-HGEGTYTNDVTEYLEEEAAKEFIEWLIKGKPSSGAPPSKKKKKK-NH2” were “Active” and 10.62.
Taken in the same sequence, the figures for “H-H[Aib]EGTYTNDVTEYCEEEAAKCFIEWLIKGKPSSGAPPSKKKKKK-NH2 (cysteines drawn unpaired)” were “Active” and 10.55.
Regarding “H-H[Aib]EGTYTNDVTEYLEEEAAKCFIEWLICGKPSSGAPPSKKKKKK-NH2 (cysteines drawn unpaired)”, in the experiment on Mus musculus, the outcome was Active. Further, the pEC50 in experiment [1] was 10.44.
